Legend:
winter wheat [1] = experiment: Test E winter wheat; assay type: in vivo, Triticum aestivum; conditions: Preemergence
winter wheat [2] = experiment: Test E winter wheat; assay type: in vivo, Triticum aestivum; conditions: Postemergence
In short: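 Plants were grown under normal greenhouse practice; for postemergence, in sandy loam soil mixed 60:40 with potting mix, treated at the 1- to 4-leaf stage. The compound was in a non-phytotoxic solvent carrying a surfactant. After roughly 21 to 28 days plants were scored visually against untreated plants.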

velvetleaf = experiment: Test B pre/postemergence velvetleaf; assay type: in vivo, Abutilon theophrasti
In short: (§1)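 Herbicidal effect was estimated by eye on a ten-point control scale after plants spent twelve to sixteen days in a greenhouse following soil or foliar treatment. Foliar sprays targeted plants at one to four leaves; all doses were formulated in a non-phytotoxic solvent with surfactant.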

green foxtail = experiment: Test E green foxtail; assay type: in vivo, Setaria viridis; conditions: Preemergence
wild oat [3] = experiment: Test E wild oat; assay type: in vivo, Avena fatua; conditions: Preemergence, 0 to 100 scale where 0 is no effect and 100 is complete control
blackgrass = experiment: Test E blackgrass; assay type: in vivo, Alopecurus myosuroides; conditions: Preemergence
winter barley = experiment: Test E winter barley; assay type: in vivo, Hordeum vulgare; conditions: Preemergence
bedstraw = experiment: Test B pre/postemergence bedstraw; assay type: in vivo, Galium aparine
In short: as §1

morningglory = experiment: Test B pre/postemergence morningglory; assay type: in vivo, Ipomoea hederacea
In short: as §1

wild oat [4] = experiment: Test B pre/postemergence wild oat; assay type: in vivo, Avena fatua
In short: as §1

Italian ryegrass = experiment: Test E Italian ryegrass; assay type: in vivo, Lolium multiflorum; conditions: Preemergence
[5] = Rate 500 g/ha, 0 to 100 scale where 0 is no effect and 100 is complete control
[6] = Rate 1000 g/ha, 0 to 100 scale where 0 is no effect and 100 is complete control
[7] = Postemergence, Rate 62 g/ha, scale 0 to 10, 0 is no effect, 10 is complete control
[8] = Postemergence, Rate 250 g/ha, scale 0 to 10, 0 no effect, 10 complete control
[9] = Preemergence, Rate 62 g/ha, scale 0 to 10, 0 is no effect, 10 is complete control
[10] = Preemergence, Rate 125 g/ha, scale 0 to 10 (0 no effect, 10 complete control)
[11] = Preemergence, Rate 250 g/ha, scale of 0 to 10 where 0 is no effect and 10 is complete control
[12] = Preemergence, Rate 500 g/ha, scale 0 (no effect) to 10 (complete control)
[13] = Rate 125 g/ha, Postemergence, scale 0 to 10, 0 no effect, 10 complete control
[14] = Rate 500 g/ha, Postemergence, 0 to 10 scale (0 no effect, 10 complete control)

Cc1ccc(N(C(=O)n2oc(=O)n(-c3ccccc3C)c2=O)C(C)C)cc1 [Compound 40]
Plant response rating, Wheat (winter) (winter wheat [1]; Rate 250 g/ha, 0 to 100 scale): 20 | Plant response rating, Wheat (winter) (winter wheat [1]; [5]): 30 | Plant response rating, Wheat (winter) (winter wheat [1]; [6]): 40 | Plant response rating, Wheat (winter) (winter wheat [2]; Rate 250 g/ha, 0 to 100 scale (0 no effect, 100 complete control)): 0 | Plant response rating, Wheat (winter) (winter wheat [2]; Rate 1000 g/ha, 0 to 100 scale, 0 is no effect and 100 is complete control): 0 | Plant response rating, Wheat (winter) (winter wheat [2]; Rate 500 g/ha, 0 to 100 scale, 0 no effect, 100 complete control): 0 | Velvetleaf plant response rating (velvetleaf; [7]): 0 | Velvetleaf plant response rating (velvetleaf; [8]): 0 | Plant response rating, Velvetleaf (velvetleaf; [9]): 0 | Plant response rating, Velvetleaf (velvetleaf; [10]): 0 | Plant response rating, Velvetleaf (velvetleaf; [11]): 0 | Velvetleaf plant response rating (velvetleaf; [12]): 0 | Velvetleaf plant response rating (velvetleaf; [13]): 0 | Plant response rating, Green foxtail (green foxtail; Rate 250 g/ha, 0 to 100 scale): 70 | Plant response rating, Green foxtail (green foxtail; [5]): 90 | Plant response rating, Green foxtail (green foxtail; [6]): 90 | Plant response rating, Wild oat (wild oat [3]; Rate 500 g/ha): 50 | Plant response rating, Wild oat (wild oat [3]; Rate 1000 g/ha): 60 | Plant response rating, Blackgrass (blackgrass; Rate 250 g/ha, 0 to 100 scale): 40 | Plant response rating, Blackgrass (blackgrass; [5]): 60 | Plant response rating, Blackgrass (blackgrass; [6]): 70 | Plant response rating, Barley (winter) (winter barley; Rate 250 g/ha, 0 to 100 scale): 30 | Plant response rating, Barley (winter) (winter barley; [5]): 40 | Plant response rating, Barley (winter) (winter barley; [6]): 50 | Bedstraw plant response rating (bedstraw; [7]): 0 | Plant response rating, Bedstraw (bedstraw; [9]): 0 | Plant response rating, Bedstraw (bedstraw; [10]): 0 | Plant response rating, Bedstraw (bedstraw; [11]): 0 | Bedstraw plant response rating (bedstraw; [12]): 0 | Bedstraw plant response rating (bedstraw; [14]): 2 | Morningglory plant response rating (morningglory; [7]): 3 | Morningglory plant response rating (morningglory; [8]): 6 | Plant response rating, Morningglory (morningglory; [9]): 0 | Plant response rating, Morningglory (morningglory; [10]): 0 | Plant response rating, Morningglory (morningglory; [11]): 0 | Morningglory plant response rating (morningglory; [12]): 0 | Morningglory plant response rating (morningglory; [13]): 6 | Morningglory plant response rating (morningglory; [14]): 7 | Wild oats plant response rating (wild oat [4]; [7]): 0 | Wild oats plant response rating (wild oat [4]; [8]): 0 | Plant response rating, Wild oats (wild oat [4]; [10]): 0 | Plant response rating, Wild oats (wild oat [4]; [11]): 0 | Wild oats plant response rating (wild oat [4]; [12]): 5 | Wild oats plant response rating (wild oat [4]; [13]): 0 | Plant response rating, I. Ryegrass (Italian ryegrass; Rate 250 g/ha, 0 to 100 scale): 30 | Plant response rating, I. Ryegrass (Italian ryegrass; [5]): 70 | Plant response rating, I. Ryegrass (Italian ryegrass; [6]): 70

From patent US6737383B1, “Herbicidal oxadiazolidines” (priority 1999, dated 2004)
